According to patent publication US20240317762A1, “PHTHALAZINONE-BASED PARP-1 INHIBITORS” (Oregon Health & Science University, priority 2021, published 2024):
Values joined by “and” are separate entries in the source; they are usually repeats but may differ in a detail not shown here. Equal values may be shown once.

Key:
HEK 293T cells [1] = assay: neutral comet assay; type: cell-based, human; details: 1 μM overnight, compared to bleomycin
From the text: Cells were washed with 1×PBS, trypsinized, resuspended in a 1000,000 cells/ml 1×PBS solution, and mixed with molten agarose 1:2. The agarose mixture was placed onto CometSlides and the comet assay was completed following the manufacturer instructions (Trevigen, 4250-050-K). DNA was stained using SYBR Green and slides were imaged on a Zeiss ApoTome2 on Axiolmager using a 10× objective (>100 cells/condition).

[2] = test system: Ser345 phosphorylation of Chk1 in HEK 293 cells; assay: western blot analysis of phosphorylation of Chk1; details: HEK 293 cells, 18 hours
PARP-1 [3] = biological target: T1, PARP-1 (Homo sapiens, UniProt P09874); assay: fluorescence polarization DNA binding affinity assay; details: 5 μM inhibitor
From the text: The full-length WT PARP-1 protein used in these assays was purified as described previously (30).

R878A PARP-1 = R878A PARP-1 (Homo sapiens, UniProt P09874, R878A); assay: catalytic activity of PARP-1 mutant expressed in HEK 293 cells, R878A; type: biochemical; details: 3 μM AZ0108
HEK 293T cells [4] = assay: cell proliferation (MTT) assay; type: cell-based, human
Experimental: HEK 293T or HEK 293 PARP-1 KO cells were seeded in a 96 well plate at 1000-2000 cells per well. Following an overnight incubation, MTT reagent, 3-(4,5-dimethylthiazol-2-yl)-2,5-diphenyltetrazolium bromide, or a dosage curve of indicated inhibitor was added to each well in quadruplicate. Following a 3-hour incubation at 37° C., wells containing MTT reagent, were aspirated and lysed with 100 μl DMSO. These wells acting as a no growth control were collected, saved @ −20° C., and replaced with 100 μl water. The plate was placed back into the incubator for a total of 72 hours of inhibitor treatment prior to MTT reagent being added for a final time. Following a 3 hour incubation with the reagent, wells were aspirated, and 100 μl DMSO were added to each well, while the no growth control sample was added back to the plate. Absorbance was read on a SpectraMaxi3 plate reader (Molecular Devices). Percent growth was calculated for analysis. Statistical significance was assigned using individual t-tests between conditions for each inhibitor dosage.
Error bars represent SEM. […] Error bars represent SEM. […] Error bars represent SEM.

HEK 293T cells [5] = assay: analysis of cell cycle (DAPI, flow cytometry)
Experimental: After the indicated treatments, cells were washed twice with 1× PBS, trypsinized off of the plate, and washed an additional 2 times with 1×PBS. Cells were then permeabilized using 70% cold ethanol while vortexing before incubating for 30 min at 4° C. Cells were then washed three times with 1×PBS and counted using a hemocytometer to create a final pellet of 1×10^6 cells in for each inhibitor condition. 500 μl of DAPI solution (1 μg/ml DAPI, 0.1% Triton X-100 in PBS) was added to each cell pellet and incubated on ice for 30 min before being analyzed by flow cytometry using a BD Canto II. All data was analyzed on FlowJo software, gating for 20,000 singlet events. Manual cell cycle gates were set onto the DMSO control data using Watson modeling as reference. These gates were applied to all treatment conditions to obtain quantitative analysis.
Error bars represent SEM. […] Caspase-Glo 3/7 reagent was added to each well and luminescence was read after 30 minutes. […] Error bars represent SEM. […] Cell cycle was analyzed by flow cytometry (20,000 singlet events) and cell cycle statistics were calculated in FlowJo software against DMSO Watson modeling (n=3). FIG. 3F) DNA synthesis was measured using EdU incorporation. […] EdU incorporation was labelled using TAMRA azide click-chemistry and imaged at 20×. Mean intensity of TAMRA signal within DAPI masks analyzed using Zen software (n>3900 cells over 2 replicates). Values are normalized to the average DMSO control within each replicate. Error bars represent SEM. Statistical significance calculated via one-way ANOVA with Tukey's multiple comparisons test (p<0.05).

PARP-1 [6] = biological target: T1, PARP-1; assay: PARP-1 auto-PARylation activity assay in cells; type: cell-based
Experimental: Cells were washed with PBS, and lysed in RIPA buffer (50 mM Tris-HCl [pH 8.0], 150 mM NaCl, 0.1% SDS, 1% Triton X-100, 1× cOmplete™ protease inhibitors (Roche), and 1 μM Veliparib). […] Following quantification, 4× Laemmli sample buffer with 5% β-mercaptoethanol was added to 25-50 μg of protein.
Membrane blots were blocked with 5% milk-PBST for 1 h at RT, followed by incubation with a rabbit pan-ADP-ribose binding reagent (Cell Signaling), a rabbit PARP-1 antibody (Bethyl Laboratories), or a mouse b-actin antibody (Santa Cruz Biotechnology) for 2 h at RT, followed by incubation with HRP-conjugated secondary antibodies. […] Blots were imaged for chemiluminescent signal on a ChemiDoc MP system (BioRad). Statistical significance was established through multiple unpaired t-tests with nonlinear regression fit analysis.
FIGS. 5A-5F. […] An unlabeled competitor was added and the decrease in fluorescence polarization was measured across time. […] Error bars represent SEM. […] Error bars represent SEM. […] Cells were subsequently lysed using RIPA buffer, run out on SDS-PAGE, and probed for ADPr (Cell Signaling) and PARP-1 (Bethyl Laboratories). FIG. 5F) Quantification of western blot images. ADPr values are normalized to PARP-1 within each replicate and plotted as percentage compared to DMSO. Error bars indicate SEM (n=3).

[7] = test system: Ewing sarcoma cell line EW-8; assay: ES-8 viability screen (CellTiter-Glo); type: cell-based
Experimental: Cell viability was measured using the CellTiter-Glo (Promega, G7573) assay and read using an Envision (PerkinElmer) plate reader. Compound source plates (96-well) were prepared by solubilizing each drug in DMSO to a maximum concentration of 1-50 mM, then arraying samples in 10-point dose-response with 3-fold dilution. Positive and negative controls (staurosporine at 10 mM and DMSO, respectively) were added to the source plates. Drug was transferred from the source plate to the assay plate using a Biomek FX (Beckman Coulter) liquid handler equipped with a pin tool which transferred ˜100 nl into a final volume of 100 μl, resulting in ˜1000-fold dilution. At least two biological replicates (assay performed on different day with same drug plate and independent cell preparation) were obtained for each drug. To analyze the assay, the relative light unit signal in each well was first log 2 transformed, then normalized by subtracting the mean of the negative controls wells on each plate.
FIGS. 6A-6E. […] 0.1 μM ad-olaparib (chemical structure indicated in panel a) was added to the cells for 1 hour before undergoing a UV treatment for 5 minutes in cold PBS. Cells were lysed and sonicated in PBS (1% Triton X-100+1% SDS), clicked with TAMRA-azide and run out on SDS-PAGE. The gel was imaged for TAMRA and probed for PARP-1 (Bethyl Laboratories), and alpha-tubulin (X). FIGS. 6B, 6D) Quantification of western blot images. TAMRA or ADPr values are normalized to PARP-1 within each replicate and plotted as percentage compared to DMSO. Error bars indicate SEM (n=3-4). Statistical significance of off-rate calculated via multiple t-tests (p<0.05). […] Cells were subsequently treated with PARGi (10 μM) for 30 minutes, lysed using RIPA buffer, run out on SDS-PAGE, and probed for ADPr (Cell Signaling) and PARP-1 (Bethyl Laboratories). FIG. 6E) ES-8 cells were treated with indicated concentration of inhibitors for 72 hours before measuring cell viability using the CellTiter-Glo kit (Promega G7573). IC50 values were calculated using R statistical software.

T1 sequence (P09874 whole entry): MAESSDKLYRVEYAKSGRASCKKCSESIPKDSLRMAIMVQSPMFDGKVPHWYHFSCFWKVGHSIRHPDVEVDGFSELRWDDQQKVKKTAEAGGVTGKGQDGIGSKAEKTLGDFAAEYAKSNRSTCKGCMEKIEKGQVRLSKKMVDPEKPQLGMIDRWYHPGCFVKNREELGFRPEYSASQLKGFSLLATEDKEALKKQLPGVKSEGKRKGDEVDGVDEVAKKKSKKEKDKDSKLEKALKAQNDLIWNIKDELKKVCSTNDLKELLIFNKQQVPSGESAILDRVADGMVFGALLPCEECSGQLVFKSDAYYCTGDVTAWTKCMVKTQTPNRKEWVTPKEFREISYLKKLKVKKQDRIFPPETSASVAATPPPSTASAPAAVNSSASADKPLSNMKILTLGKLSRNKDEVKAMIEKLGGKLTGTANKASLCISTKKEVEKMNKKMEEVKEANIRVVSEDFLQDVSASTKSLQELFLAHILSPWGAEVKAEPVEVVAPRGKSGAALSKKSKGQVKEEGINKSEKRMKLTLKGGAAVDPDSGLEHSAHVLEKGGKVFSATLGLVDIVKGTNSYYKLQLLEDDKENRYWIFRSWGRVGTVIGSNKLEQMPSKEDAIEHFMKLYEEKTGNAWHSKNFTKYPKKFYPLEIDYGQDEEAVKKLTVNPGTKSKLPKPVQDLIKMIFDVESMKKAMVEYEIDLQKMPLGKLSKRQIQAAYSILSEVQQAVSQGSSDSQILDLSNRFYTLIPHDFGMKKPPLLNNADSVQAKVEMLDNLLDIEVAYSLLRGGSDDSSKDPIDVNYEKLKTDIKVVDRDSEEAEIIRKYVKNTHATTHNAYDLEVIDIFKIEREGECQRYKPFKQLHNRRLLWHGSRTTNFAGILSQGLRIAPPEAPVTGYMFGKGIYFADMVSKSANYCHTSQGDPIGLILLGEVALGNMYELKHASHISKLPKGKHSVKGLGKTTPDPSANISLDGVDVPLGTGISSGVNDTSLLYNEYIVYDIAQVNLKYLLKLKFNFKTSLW
R878A PARP-1, sequence (P09874 whole entry R878A): as the sequence (P09874 whole entry) above, with R878A counted along it

increase of the affinity of PARP-1 for DNA (PARP-1 [3]; DNA dumbbell probe with central nick 5 nM): 4 fold | inhibition of R878A PARP-1 activity (R878A PARP-1): inhibited | EC50 (PARP-1 [6]; 30 min inhibitor, then PARG inhibitor PDD00017273, read-out: EC50 inhibiting PARP-1 PARylation in HEK 293 cells): 42.5 nM | IC50 (PARP-1 [6]; FIG. 5F, nonlinear regression, read-out: IC50 of dose curves, quantification of western blot (ADPr normalized to PARP-1)): 42.5 nM | EC50 ([7]; viability, 72 h): 20 nM and 20.9 nM
Substance: (S)-4-(difluoro(3-(6-methyl-3-(trifluoromethyl)-5,6,7,8-tetrahydro-[1,2,4]triazolo[4,3-a]pyrazine-7-carbonyl)phenyl)methyl)phthalazin-1(2H)-one [AZ0108]
double-strand breaks (DSBs) (HEK 293T cells [1]): only weakly generated DSBs | Ser345 phosphorylation of Chk1 [2]: induced Ser345 phosphorylation of Chk1 | effect on the affinity of PARP-1 for nicked DNA (PARP-1 [3]; compared to DMSO control): more pronounced effect on DNA binding to PARP-1 | EC50 (HEK 293T cells [4]; MTT, 72 h, read-out: EC50 cell growth): 30 nM and 29.7 nM | right-shift of the EC50 value for AZ0108 on cell growth (HEK 293T cells [4]; dual-treated with olaparib): 10 fold | G1 (HEK 293T cells [5]; DAPI intensity, 18 hours): 9.31% | G2 (HEK 293T cells [5]; DAPI intensity, 18 hours): 9.65% | S (HEK 293T cells [5]; DAPI intensity, 18 hours): 77.4% | effect on cell cycle (HEK 293T cells [5]; FACS, DAPI fluorescence): arrested HEK 293 cells in S-phase | Fold Difference to Pip6 ([7]; ratio of EC50 values): 86
